Reference: patent US7109380B2, “Cyclopentenedione antifungal compounds and methods for their use” (The University of Mississippi, priority 2004, dated 2006)

How the values were obtained:
Test in all cases: 96-well microtiter fungal growth assay;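 as to Mean percent fungal growth inhibition of Botrytis cinerea: percent relative to untreated positive growth controls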;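 as to Mean percent fungal growth inhibition of Colletotrichum acutatum: percent relative to untreated positive growth controls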;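 as to Mean percent fungal growth inhibition of Colletotrichum fragariae: percent relative to untreated positive growth controls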;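 as to Mean percent fungal growth inhibition of Colletotrichum gloeosporoides: percent relative to untreated positive growth controls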;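 as to Mean percent fungal growth inhibition of Fusarium oxysporum: percent relative to untreated positive growth controls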
Type in all cases: cell-based
[1] = test system: Botrytis cinerea;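 as to Mean percent fungal growth inhibition of Botrytis cinerea: percent relative to untreated positive growth controls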
Source text: (§1) Pathogen collection. Isolates of Colletotrichum acutatum Simmonds, Colletotrichum fragariae Brooks, and Colletotrichum gloeosporioides (Penz.) Penz. & Sacc. in Penz. were obtained from B. J. Smith, USDA, ARS, Small Fruit Research Station, Poplarville, Mass. Colletotrichum fragariae (isolate CF63), C. acutatum (isolate CAGoff), and C. gloeosporioides (isolate CG162) were used for all pathogen and bioautography studies. Isolate CF63 is one of the most virulent isolates at infecting strawberry plants and inducing both crown and fruit rot (Smith and Black, 1990). CF63, CAGoff, and CG162 were used as standard test isolates because of our extensive knowledge of these isolates and their known fungicide sensitivity profiles in both bioautography and microtiter formats. The three Colletotrichum species were isolated from strawberry (Fragaria xananassa Duchesne). Botrytis cinerea Pers.:Fr, was isolated from commercial grape (Vitis vinifera L.) and Fusarium oxysporum Schlechtend:Fr from orchid (Cynoches sp.) by David E. Wedge, USDA ARS Natural Products Utilization Research Unit. Phomopsis viticola (Sacc.) and P. obscurans (Ellis & Everh.) Sutton were from Mike A. Ellis, Ohio State University, Wooster, Ohio. Fungi were grown on potato-dextrose agar (PDA, Difco, Detroit Mich.) in 9 cm petri dishes and incubated in a growth chamber at 24±2° C. and under cool-white fluorescent lights ([…]·m^−2·sec^−1 light) with 12-h photoperiod.
(§2) Inoculum preparation. Conidia were harvested from 7–10 day-old cultures by flooding plates with 5 mL of sterile distilled water and dislodging conidia by softly brushing the colonies with an L-shaped glass rod. Conidial suspensions were filtered through sterile miracloth (Calbiochem-Novabiochem Corp., La Jolla Calif.) to remove mycelia. Conidia concentrations were determined photometrically, from a standard curve based on the absorbance at 625 nm and suspensions were then adjusted with sterile distilled water to a concentration of 1.0×10^6 conidia/mL.
(§3) Microtiter assay. A standardized 96-well microtiter plate assay developed for discovery of natural product fungicidal agents. A 96-well microtiter assay was used to determine sensitivity of B. cinerea, C. acutatum, C. fragariae, C. gloeosporioides, F. oxysporum, Phomopsis viticola, and P. obscurans to the various antifungal agents in comparison with known fungicidal standards. Vinclozolin, captan, and thiabendazole, which represent three different modes of action, were used as standards in this experiment. Each fungus was challenged in a dose-response format using test compounds where the final treatment concentrations were 0.3, 3.0 and 30.0 μM. Microtiter plates (Nunc MicroWell, untreated; Roskilde, Denmark) were covered with a plastic lid and incubated in a growth chamber at 24±1 C and 12 h photoperiod under 60±5 μmol light. Growth was then evaluated by measuring absorbance of each well at 620 nm using a microplate photometer (Packard Spectra Count, Packard Instrument Co., Downers Grove, Ill.).
(§4) Microbioassay Experimental Design. Chemical sensitivity of each fungus 96-well microtiter assay is used to determine sensitivity of B. cinerea, C. acutatum, C. fragariae, C. gloeosporioides, F. oxysporum, Phomopsis viticola, and P. obscurans. Each chemical is evaluated in duplicate at each dose (0.3, 3.0 and 30.0 μM) and repeated twice in time. Sixteen wells containing broth and inoculum serves as positive controls, eight wells containing solvent at the appropriate concentration and broth without inoculum are used as negative controls. Mean absorbance values and standard errors is used to evaluate fungal growth at 48 hrs and 72 hrs except for P. obscurans and P. viticola the data are recorded at 120 hrs. […] Treatments are arranged as a split-plot design replicated twice in time. Whole-plots were fungal isolates and sub-plots are chemicals. Each dose level and response time is analyzed separately. […]

[2] = test system: Colletotrichum fragariae;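 as to Mean percent fungal growth inhibition of Colletotrichum fragariae: percent relative to untreated positive growth controls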
Source text: as §1, §2, §3, §4

[3] = test system: Fusarium oxysporum;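 as to Mean percent fungal growth inhibition of Fusarium oxysporum: percent relative to untreated positive growth controls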
Source text: as §1, §2, §3, §4

[4] = test system: Colletotrichum acutatum;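 as to Mean percent fungal growth inhibition of Colletotrichum acutatum: percent relative to untreated positive growth controls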
Source text: as §1, §2, §3, §4

[5] = test system: Colletotrichum gloeosporioides;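 as to Mean percent fungal growth inhibition of Colletotrichum gloeosporoides: percent relative to untreated positive growth controls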
Source text: as §1, §2, §3, §4

**Q.** How did the “Mean percent fungal growth inhibition of Botrytis cinerea” value ([1]; 0.3 μm, 48 hrs) turn out when `COC(/C=C/c1ccccc1)=C1\C(=O)C=C(C)C1=O` [Compound 1, coruscanone A] was run?
**A.** Its value is −7.3 ± 12.8%.

**Q.** And the “Mean percent fungal growth inhibition of Botrytis cinerea” value ([1]; 0.3 μm, 72 hrs)?
**A.** Its value is 28.1 ± 8.3%.

**Q.** And the “Mean percent fungal growth inhibition of Botrytis cinerea” value ([1]; 3.0 μm, 48 hrs)?
**A.** The value was −45.2 ± 16.4%.

**Q.** And the “Mean percent fungal growth inhibition of Botrytis cinerea” value ([1]; 3.0 μm, 72 hrs)?
**A.** The value was −15.7 ± 10.6%.

**Q.** And the “Mean percent fungal growth inhibition of Botrytis cinerea” value ([1]; 30 μm, 48 hrs)?
**A.** The value was −69.6 ± 9.8%.

**Q.** What about the “Mean percent fungal growth inhibition of Botrytis cinerea” value ([1]; 30 μm, 72 hrs) of the same molecule?
**A.** Its value is −88.4 ± 5.6%.

**Q.** And the IC50 ([1]; Botrytis cinerea, 48 h, read-out: IC50 (growth inhibition))?
**A.** Its IC50 is under 1.55 µM.

**Q.** What about the “Mean percent fungal growth inhibition of Colletotrichum fragariae” value ([2]; 0.3 μm, 48 hrs) of the same molecule?
**A.** Its value is −14.1 ± 10.8%.

**Q.** And the “Mean percent fungal growth inhibition of Colletotrichum fragariae” value ([2]; 0.3 μm, 72 hrs)?
**A.** Its value is −4.8 ± 5.0%.

**Q.** And the “Mean percent fungal growth inhibition of Colletotrichum fragariae” value ([2]; 3.0 μm, 48 hrs)?
**A.** The value was −94.0 ± 1.9%.

**Q.** And the “Mean percent fungal growth inhibition of Colletotrichum fragariae” value ([2]; 3.0 μm, 72 hrs)?
**A.** The value was −54.6 ± 18.7%.

**Q.** And the “Mean percent fungal growth inhibition of Colletotrichum fragariae” value ([2]; 30 μm, 48 hrs)?
**A.** The value was −96.9 ± 1.9%.

**Q.** What about the “Mean percent fungal growth inhibition of Colletotrichum fragariae” value ([2]; 30 μm, 72 hrs) of the same molecule?
**A.** The value was −67.4 ± 18.3%.

**Q.** And the IC50 ([2]; Colletotrichum fragariae, C. fragariae, 96-well microbioassay, read-out: IC50 (growth inhibition))?
**A.** The IC50 was under 3.1 µM.

**Q.** What about the “Mean percent fungal growth inhibition of Fusarium oxysporum” value ([3]; 0.3 μm, 48 hrs) of the same molecule?
**A.** The value was 2.4 ± 4.7%.

**Q.** What about the “Mean percent fungal growth inhibition of Fusarium oxysporum” value ([3]; 0.3 μm, 72 hrs) of the same molecule?
**A.** Its value is 12.2 ± 2.1%.

**Q.** What about the “Mean percent fungal growth inhibition of Fusarium oxysporum” value ([3]; 3.0 μm, 48 hrs) of the same molecule?
**A.** Its value is −76.9 ± 1.6%.

**Q.** And the “Mean percent fungal growth inhibition of Fusarium oxysporum” value ([3]; 3.0 μm, 72 hrs)?
**A.** The value was −24.2 ± 3.3%.

**Q.** What about the “Mean percent fungal growth inhibition of Fusarium oxysporum” value ([3]; 30 μm, 48 hrs) of the same molecule?
**A.** The value was −99.3 ± 0.2%.

**Q.** What about the “Mean percent fungal growth inhibition of Fusarium oxysporum” value ([3]; 30 μm, 72 hrs) of the same molecule?
**A.** Its value is −98.9 ± 0.2%.

**Q.** What about the IC50 ([3]; Fusarium oxysporum, F. oxysporum, 96-well microbioassay, read-out: IC50 (growth inhibition)) of the same molecule?
**A.** Its IC50 is under 12.5 µM.

**Q.** And the “Mean percent fungal growth inhibition of Colletotrichum acutatum” value ([4]; 0.3 μm, 48 hrs)?
**A.** Its value is 49.7 ± 6.6%.

**Q.** What about the “Mean percent fungal growth inhibition of Colletotrichum acutatum” value ([4]; 0.3 μm, 72 hrs) of the same molecule?
**A.** Its value is 38.0 ± 3.0%.

**Q.** And the “Mean percent fungal growth inhibition of Colletotrichum acutatum” value ([4]; 3.0 μm, 48 hrs)?
**A.** Its value is −73.1 ± 4.9%.

**Q.** And the “Mean percent fungal growth inhibition of Colletotrichum acutatum” value ([4]; 3.0 μm, 72 hrs)?
**A.** The value was −21.8 ± 4.4%.

**Q.** What about the “Mean percent fungal growth inhibition of Colletotrichum acutatum” value ([4]; 30 μm, 48 hrs) of the same molecule?
**A.** Its value is −95.8 ± 1.9%.

**Q.** And the “Mean percent fungal growth inhibition of Colletotrichum acutatum” value ([4]; 30 μm, 72 hrs)?
**A.** The value was −97.6 ± 0.8%.

**Q.** And the IC50 ([4]; Colletotrichum acutatum, C. acutatum, 96-well microbioassay, read-out: IC50 (growth inhibition))?
**A.** Its IC50 is under 3.1 µM.

**Q.** What about the “Mean percent fungal growth inhibition of Colletotrichum gloeosporoides” value ([5]; 0.3 μm, 48 hrs) of the same molecule?
**A.** The value was 37.7 ± 9.0%.

**Q.** What about the “Mean percent fungal growth inhibition of Colletotrichum gloeosporoides” value ([5]; 0.3 μm, 72 hrs) of the same molecule?
**A.** The value was 46.7 ± 3.9%.

**Q.** And the “Mean percent fungal growth inhibition of Colletotrichum gloeosporoides” value ([5]; 3.0 μm, 48 hrs)?
**A.** The value was −79.9 ± 2.8%.

**Q.** What about the “Mean percent fungal growth inhibition of Colletotrichum gloeosporoides” value ([5]; 3.0 μm, 72 hrs) of the same molecule?
**A.** The value was −13.8 ± 3.7%.

**Q.** And the “Mean percent fungal growth inhibition of Colletotrichum gloeosporoides” value ([5]; 30 μm, 48 hrs)?
**A.** The value was −95.2 ± 2.2%.

**Q.** And the “Mean percent fungal growth inhibition of Colletotrichum gloeosporoides” value ([5]; 30 μm, 72 hrs)?
**A.** The value was −94.4 ± 1.6%.

**Q.** And the IC50 ([5]; Colletotrichum gloeosporioides, C. gleoesporioides, 96-well microbioassay, read-out: IC50 (growth inhibition))?
**A.** The IC50 was under 3.1 µM.
